In US5481043A, “Phenone compounds, manufacturing method and pharmaceutical preparations containing them” (priority 1991, dated 1996):

Legend:
[1] = tested on: PAF-induced bronchial asthma; assay: Asthma-protective action in guinea pigs: PAF-induced bronchial asthma (inhalation, dual-chamber body plethysmograph); assay type: in vivo, guinea pig; conditions: for effects on PAF-induced and allergic reactions compared with androsin (in words): PAF-induced and allergic (ovalbumin) reactions
Experimental: (§1) b) Asthma-protective action of the acetophenone compound in guinea pigs.
(§2) Male white "Pirbright" guinea pigs were sensitized to ovalbumin by means of the well-known methods. Inhalation experiments were conducted 4 to 6 weeks later.
(§3) Spontaneously breathing animals were placed in a dual-chamber body plethysmograph in which the two chambers were separated around the head of the animals by a rubber collar filled with water. Changes in volume in the two chambers were measured by means of pressure transfer systems. The degree of bronchial obstruction was determined by means of the parameter, "compressed air". This technique is ten times more sensitive than other invasive methods (Dorsch et al., Pflugers Arch., 1981, 391: 236 to 241).
(§4) Groups of 10 to 14 animals were divided into two sub-groups and either treated with the test substance or with a solution. Three or four days later the experiments were repeated with those animals which had previously been given the control being given the test substance and vice-versa (each animal was once given either the test substance or the solvent).
Ovalbumin, histamine and acetylcholine were dissolved in saline solution; PAF was first dissolved in ethanol and then in saline solution containing 0.25% of bovine serum albumin to a final concentration of 1 μg PAF per ml. Ovalbumin, PAF, histamine and acetylcholine were administered in the form of an aerosol produced by ultrasound.
The effect of the test substance on the PAF-induced hyperreactivity was studied by means of successive inhalation of histamine, PAF and histamine. One group of animals was divided into two sub-groups with both sub-groups inhaling histamine in a dose leading to moderate bronchial obstruction. One hour later, one group was given the substance to be tested and the other group was given the solvent alone. Both groups were induced later by the successive inhalation of PAF and histamine. First 1 μg of PAF and 60 minutes later the same dose of histamine as before was given. The second contact with histamine in control animals usually leads to asthmatic reactions which are three times as great as after the first contact, […]

[2] = tested on: human peripheral leukocytes; assay: Inhibition of histamine release from human peripheral leukocytes; assay type: cell-based; conditions: for inhibition at 0.1 µg/mL / inhibition at 1 µg/mL / inhibition at 10 µg/mL / inhibition at 100 µg/mL: Homo sapiens, Leukocyte; for inhibition at 0.1 µg/mL: 0.0001 mg/ml; for inhibition at 1 µg/mL: 0.001 mg/ml; for inhibition at 10 µg/mL: 0.01 mg/ml; for inhibition at 100 µg/mL: 0.1 mg/ml
Experimental: Venous blood was withdrawn from atopic donors and the peripheral leukocytes were obtained by means of dextran sedimentation. The purified cells were preincubated with three or four different concentrations of the substance to be tested and with the solvent alone. After 10 minutes, rabbit antihuman IgE antibodies, plasma containing anaphylatoxin (C5a) according to Vallota and Muller-Eberhard, calcium ionophore or saline solution were added to the cells. 30 minutes later, the reaction was stopped and the histamine concentration was measured in the […] by means of spectrofluorometry.
The results are shown in table 1 with the inhibition of the histamine release shown in percent of the maximal release by perchloric acid, corrected by the spontaneous release without stimulation.

[3] = tested on: allergic bronchial asthma (ovalbumin inhalation); assay: Asthma-protective action in guinea pigs: allergic (ovalbumin-induced) bronchial asthma (inhalation, dual-chamber body plethysmograph); assay type: in vivo, guinea pig
Experimental: as §1, §2, §3, §4
Ovalbumin, histamine and acetylcholine were dissolved in saline solution; PAF was first dissolved in ethanol and then in saline solution containing 0.25% of bovine serum albumin to a final concentration of 1 μg PAF per ml. […]

[4] = A 12387 (calcium ionophore) stimulus
[5] = oral dose of 10 mg/kg body weight

Structure (SMILES)	effects on PAF-induced and allergic reactions compared with androsin (in words) [1]	inhibition at 0.1 µg/mL [2, 4] [%]	inhibition at 1 µg/mL [2, 4] [%]	inhibition at 10 µg/mL [2, 4] [%]	inhibition at 100 µg/mL [2, 4] [%]	inhibition at 0.1 µg/mL ([2]; C5a stimulus) [%]	inhibition at 1 µg/mL ([2]; C5a stimulus) [%]	inhibition at 10 µg/mL ([2]; C5a stimulus) [%]	inhibition at 100 µg/mL ([2]; C5a stimulus) [%]	inhibition at 0.1 µg/mL ([2]; α-IgE stimulus) [%]	inhibition at 1 µg/mL ([2]; α-IgE stimulus) [%]	inhibition at 10 µg/mL ([2]; α-IgE stimulus) [%]	inhibition at 100 µg/mL ([2]; α-IgE stimulus) [%]	inhibition of histamine release in vitro (in words) ([2]; in vitro experiment of table 1)	reduction of allergic reactions ([3]; aerosol, 0.5 mg/animal) [%]	reduction of allergic bronchial asthma in vivo [3, 5] [%]	reduction of PAF-induced reactions ([1]; aerosol, 0.5 mg/animal) [%]	reduction of PAF-induced bronchial asthma in vivo [1, 5] [%]
COc1ccc(C(=O)CO)c(OC)c1 [2,4-dimethoxy-2-hydroxyacetophenone]	Essentially, the same effects are achieved	–	–	–	–	–	–	–	–	–	–	–	–	–	–	–	–	–
COc1cc(C(C)=O)ccc1O[C@@H]1O[C@H](CO)[C@@H](O)[C@H](O)[C@H]1O [Androsin, androsin]	–	-3.6	-0.4	-14.9	-12.5	-5.4	-4.5	3.7	-4.3	2.8	0.5	5.5	10.9	not effective	67	67	72	72
COc1cc(C(C)=O)ccc1O [apocynin]	Essentially, the same effects are achieved	–	–	–	–	–	–	–	–	–	–	–	–	–	–	–	–	–
